Laboratory results published in US11091490B2, “3-amino-1,5-dihydro-pyrazolo[3,4-d]pyrimidin-4-ones as cyclin dependent kinase inhibitors” (Oncotyrol Center for Personalized Cancer Medicine GMBH, priority 2016, dated 2021).
“And” between values parts separate entries of the source, which are not always exact repeats. Identical values can stand only once. Like-named read-outs stand apart in the source and are kept apart here.

Tests used:
CDK7 = molecular target: T1, CDK7 (Homo sapiens, UniProt P50613); assay: Target selectivity profile (DiscoverX KinomeScan) CDK7; assay type: binding
T1 construct: purchased DiscoverX
Description: 3. Target Selectivity Profile (DiscoverX KinomeScan)
According to an analysis of kinase inhibitory selectivity carried out in accordance with Karaman M W et al., Nat Biotechnol. 2008 January; 26(1):127-32. doi: 10.1038/nbt1358.

[1] = molecular target: human ether-a-go-go-related gene (hERG)-encoded K+ channel (Homo sapiens, UniProt Q12809); assay: Medium-throughput electrophysiology based hERG assay; assay type: cell-based
Description: In a medium-throughput electrophysiology based hERG assay carried out in accordance with Bridgland-Taylor M H et al., J Pharmacol Toxicol Methods. 2006 September-October; 54(2):189-99. Epub 2006 Mar. 6.

Pharmacokinetic studies = conditions: in vivo
Description: Pharmacokinetic studies on the compounds of the present invention have been carried out in accordance with Endele R and Senn M., Int. J. Mass Spectrom. Ion Phys. 1983 January; 48:81-84. doi:10.1016/0020-7381(83)87033-8.

NCI-H929/GN2 = assay: Multiple myeloma cells in mono- and co-culture with osteoblasts, imaging based detection (NCI-H929); assay type: cell-based
Protocol: (§1) Compound 86 has been compared with the key compound of WO 2000/21926 A2 (Example 121) in an imaging based detection system.
(§2) Two different multiple myeloma (MM) cell lines (RPMI-8226 (DSMZ, ACC 402), NCI-H929 DSMZ, ACC 163) have been used and were cultured in mono- and co-culture with osteoblasts (OB) (Osteoblasts were obtained by culturing hMSCs with a differentiation inducing medium for two weeks) in accordance with the method of Karadag A. et al. Journal of Bone and Mineral Research Vol. 15, No. 10, 2000 page 1935-43.

RPMI-8226/GN1 = assay: Multiple myeloma cells in mono- and co-culture with osteoblasts, imaging based detection (RPMI-8226); assay type: cell-based
Protocol: as §1, §2

COLO205 (colon) = assay: In vitro proliferation screening (Sulforhodamin B) COLO205; assay type: cell-based, human; conditions: COLO205, 72 h, unit M
Description: (§3) In order to evaluate the antitumor activity of the compounds of the present invention, in particular compound 86, in solid tumors, an in vitro proliferation screening in a panel of 10 different human cancer cell lines derived from solid tumors (see Table 5, below) as a model system.
(§4) Six 10-fold dilutions of compound 86 have been prepared in DMSO, from 5×10^−9 M to 5×10^−4. Single data points have been tested for each concentration. The final concentration of DMSO was 0.1%. The duration of the treatment was 72 hours. The growth inhibition was measured by using Sulforhodamin B, a protein-staining assay in accordance with Vichai V et. al. Nat. Protoc. 2006; 1(3):1112-6. Activity of the agents was determined by evaluating the following parameters: IC50, GI50, IC10, GI10, TGI, LC50, IC90 and GI90 (if these values could be calculated).

MDAMB468 (breast) = assay: In vitro proliferation screening (Sulforhodamin B) MDAMB468; assay type: cell-based; conditions: Homo sapiens, MDA-MB-468; MDAMB468, 72 h; unit M
Description: as §3, §4

UO31 (kidney) = assay: In vitro proliferation screening (Sulforhodamin B) UO31; assay type: cell-based, human; conditions: UO31, 72 h
Description: as §3, §4

PBMC control cells = assay: In vitro proliferation screening (Sulforhodamin B) PBMC control cells; assay type: cell-based; conditions: 72 h
Protocol: as §4

[2] = test system: HeLa cervix carcinoma cells; assay: Cell cycle analysis (propidium iodide FACS) HeLa; assay type: cell-based
Description: (§5) In order to investigate the mode of action (MOA) related to the antitumor activity of the compounds of the present invention (in particular compound 86) in solid tumors and multiple myeloma, two experimental strategies were used to confirm the postulated MOA: 1) monitoring of apoptosis induction and 2) cell cycle analysis upon treatment with compound 86. Three cancer cell lines (LP-1, (multiple myeloma cells, DSMZ ACC 41), A375 (melanoma cells), and HeLa (cervix carcinoma cells)) as well as control cells (HS-5 bone marrow stroma cells, ATCC CRL-11882) were used to obtain mechanistic insight into the antitumor activity of compound 86.
Measuring of DNA content in cells is a well-established method for monitoring cell proliferation, cell cycle, fragmentation of nuclei (apoptosis) and DNA ploidy. Proliferating cells progress through various phases of the cell cycle (G0, G1, S, G2, and M phase). At different stages of the cell cycle and life cycle, cell nuclei contain different amounts of DNA. The DNA content in cell nuclei was analyzed by propidium iodide (PI) staining and FACS analysis after 12 and 24 h of treatment with 100 nM of compound 86 in accordance with the method of Desai Brijal M. et. al. PLOS Vol. 8; Issue 3; p. 1-11, 2013.

[3] = test system: LP-1 multiple myeloma cells; assay: PARP cleavage Western blot LP1; assay type: cell-based; conditions: LP1, 24 h, 100 nM, FIG. 1B legend 0.08 μM
Description: as §5
(§6) Annexin V staining and Poly(ADP-ribose)-Polymerase 1 (PARP) protein cleavage was analyzed to identify a pro-apoptotic effect of compound 86 on tumor cells in accordance with the method of Koopman G, et. al. Blood 1994; 1; 84(5):1415-20. Annexin V allows the identification of cell surface changes that occur early during the apoptotic process by in situ detection, which is ideal for the analysis with adherent cells. Cleavage of PARP-1 by caspases is considered to be a hallmark of apoptosis and was therefore applied to monitor apoptosis induction after 24 h of treatment with 100 nM of compound 86.

A375 melanoma cells = assay: Annexin V/PI staining A375; assay type: cell-based; conditions: A375, 0.1 μM, 12 h and 24 h
Description: as §5, §6

[4] = test system: HeLa cervix carcinoma cells; assay: Annexin V/PI staining HeLa; assay type: cell-based; conditions: 0.1 μM, 12 h and 24 h
Description: as §5, §6

[5] = test system: HS-5 bone marrow stroma cells (control); assay: Annexin V/PI staining HS-5; assay type: cell-based; conditions: HS-5 control cells, 0.1 μM, 12 h and 24 h
Description: as §5, §6

T1 sequence (P50613 whole entry): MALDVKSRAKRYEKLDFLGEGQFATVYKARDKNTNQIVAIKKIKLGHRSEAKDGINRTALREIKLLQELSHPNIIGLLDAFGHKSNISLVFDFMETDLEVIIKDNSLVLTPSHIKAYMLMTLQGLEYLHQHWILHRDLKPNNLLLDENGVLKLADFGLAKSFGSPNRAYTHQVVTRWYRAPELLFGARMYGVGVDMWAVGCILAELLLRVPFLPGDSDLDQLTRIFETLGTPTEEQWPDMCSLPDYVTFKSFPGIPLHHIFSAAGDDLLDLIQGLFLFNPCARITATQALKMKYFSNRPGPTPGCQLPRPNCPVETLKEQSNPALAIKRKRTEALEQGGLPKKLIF
Chain of human ether-a-go-go-related gene (hERG)-encoded K+ channel (Q12809 whole entry): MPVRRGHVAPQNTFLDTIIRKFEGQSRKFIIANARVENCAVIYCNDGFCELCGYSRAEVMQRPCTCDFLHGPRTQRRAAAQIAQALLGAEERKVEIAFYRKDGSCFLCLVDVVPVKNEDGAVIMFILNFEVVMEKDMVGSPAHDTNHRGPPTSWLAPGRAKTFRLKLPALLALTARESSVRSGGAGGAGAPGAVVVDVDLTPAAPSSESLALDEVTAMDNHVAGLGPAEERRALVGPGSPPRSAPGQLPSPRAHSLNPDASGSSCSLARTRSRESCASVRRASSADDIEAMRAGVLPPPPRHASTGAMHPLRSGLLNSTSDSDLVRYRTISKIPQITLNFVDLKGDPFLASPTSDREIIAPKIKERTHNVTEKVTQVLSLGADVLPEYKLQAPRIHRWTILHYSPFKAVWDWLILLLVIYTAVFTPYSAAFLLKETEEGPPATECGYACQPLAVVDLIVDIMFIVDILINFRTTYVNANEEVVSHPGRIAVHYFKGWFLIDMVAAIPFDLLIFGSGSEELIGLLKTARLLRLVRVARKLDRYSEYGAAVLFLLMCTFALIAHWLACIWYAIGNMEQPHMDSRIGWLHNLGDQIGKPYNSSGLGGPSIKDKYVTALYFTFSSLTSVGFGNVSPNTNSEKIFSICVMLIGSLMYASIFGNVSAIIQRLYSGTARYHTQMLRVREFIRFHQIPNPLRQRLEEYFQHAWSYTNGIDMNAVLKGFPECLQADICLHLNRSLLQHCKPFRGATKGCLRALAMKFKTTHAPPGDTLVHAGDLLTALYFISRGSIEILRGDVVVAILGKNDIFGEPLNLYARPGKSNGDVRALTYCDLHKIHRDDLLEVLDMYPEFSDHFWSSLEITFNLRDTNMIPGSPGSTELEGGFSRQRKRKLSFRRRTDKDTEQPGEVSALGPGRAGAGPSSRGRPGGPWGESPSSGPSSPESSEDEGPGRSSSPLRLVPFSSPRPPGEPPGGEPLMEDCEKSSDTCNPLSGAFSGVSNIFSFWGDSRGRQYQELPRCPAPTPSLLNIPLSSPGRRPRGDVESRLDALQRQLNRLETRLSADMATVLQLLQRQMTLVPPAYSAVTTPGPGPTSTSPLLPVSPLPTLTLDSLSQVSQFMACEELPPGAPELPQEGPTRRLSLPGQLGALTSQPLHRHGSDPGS

kinase inhibitory selectivity: CDK7 (CDK7): active as inhibitors
oral bioavailability (Pharmacokinetic studies): display oral bioavailability
EC50 (NCI-H929/GN2; Homo sapiens, NCI-H929, NCI-H929/GN2, co-culture with osteoblasts, read-out: co-culture (+ OB) EC50): 72 nM
EC50 (NCI-H929/GN2; Homo sapiens, NCI-H929, NCI-H929/GN2, mono-culture, read-out: mono-culture EC50): 62 nM
EC50 (NCI-H929/GN2; NCI-H929/GN2, co-culture with osteoblasts, read-out: co-culture (+ OB) EC50): 68 nM
EC50 (NCI-H929/GN2; NCI-H929/GN2, mono-culture, read-out: mono-culture EC50): 55 nM
EC50 (RPMI-8226/GN1; Homo sapiens, RPMI-8226, RPMI-8226/GN1, co-culture with osteoblasts, read-out: co-culture (+ OB) EC50): 140 nM
EC50 (RPMI-8226/GN1; Homo sapiens, RPMI-8226, RPMI-8226/GN1, mono-culture, read-out: mono-culture EC50): 140 nM
EC50 (RPMI-8226/GN1; RPMI-8226/GN1, co-culture with osteoblasts, read-out: co-culture (+ OB) EC50): 220 nM and 180 nM
EC50 (RPMI-8226/GN1; RPMI-8226/GN1, mono-culture, read-out: mono-culture EC50): 190 nM and 120 nM
GI50 (COLO205 (colon)): 20.9 nM
GI50 (COLO205 (colon); Homo sapiens, COLO 205, 72 h): 21 nM
IC50 (COLO205 (colon); Homo sapiens, COLO 205): 24.2 nM
GI50 (MDAMB468 (breast)): 38.9 nM
IC50 (MDAMB468 (breast)): 43 nM
SMILES: CCN(CC)CC(=O)Nc1ccc(Cc2nc3c(c(N(C)C)nn3-c3c(Cl)cc(S(N)(=O)=O)cc3Cl)c(=O)[nH]2)cc1 [Compound 86, N-{4-[1-(2,6-Dichloro-4-sulfamoyl-phenyl)-3-dimethylamino-4-oxo-4,5-dihydro-1H-pyrazolo[3,4-d]pyrimidin-6-ylmethyl]-phenyl}-2-diethylamino-acetamide]
inhibitory activity on hERG K+ channel [1]: did not display any inhibitory activity
GI50 (UO31 (kidney); Homo sapiens, UO-31, unit M): 339 nM
IC50 (UO31 (kidney); Homo sapiens, UO-31, unit M): 360 nM
growth inhibitory response in words (UO31 (kidney)): responded rather weakly in the micromolar range
response to treatment (growth inhibition) (PBMC control cells): resistant
cell cycle profile (DNA content) ([2]; 0.1 μM, 12 and 24 h (FIG. 1A)): cell cycle defects and a progressive enrichment of the sub G1 group
cell cycle profile (DNA content) ([2]; 100 nM, 12 h): unaffected
cell cycle profile (DNA content) ([2]; 100 nM, 24 h): clear response
PARP cleavage [3]: specific induction of PARP cleavage
PARP cleavage ([3]; listed as Otviciclib): induction of PARP cleavage
induction of apoptosis (Annexin V/PI staining) (A375 melanoma cells): specific induction of apoptosis
induction of apoptosis (Annexin V/PI staining) (A375 melanoma cells; listed as Otviciclib): reproducible induction of apoptosis
induction of apoptosis (Annexin V/PI staining) [4]: specific induction of apoptosis
induction of apoptosis (Annexin V/PI staining) ([4]; listed as Otviciclib): reproducible induction of apoptosis
induction of apoptosis (Annexin V/PI staining) [5]: did not respond
